# Results reported in ChEMBL document CHEMBL5725686, “G protein-coupled receptor kinase 2 inhibitors and methods for use of the same” (2018).
# Experiments:
# [1] = target: G protein-coupled receptor kinase 5 (Homo sapiens, UniProt P34947); assay: The low salt concentration and DDM were used to maximize GRK activity and disrupt small molecule aggregates from forming, respectively. […] Data was analyzed and inhibition curves were fit via GraphPad Prism.
# Rhodopsin kinase GRK1 = target: T1, Rhodopsin kinase GRK1 (Homo sapiens, UniProt Q15835); assay: The low salt concentration and DDM were used to maximize GRK activity and disrupt small molecule aggregates from forming, respectively. Reactions were quenched with SDS loading buffer, separated via SDS-PAGE, dried and exposed with a phosphorimaging screen prior to quantification via Typhoon imager, as previously reported (see Thal et al., ACS Chemical Biology 7(11):1830-1839 (2012)). Data was analyzed and inhibition curves were fit via GraphPad Prism.
# T1 sequence (Q15835 whole entry): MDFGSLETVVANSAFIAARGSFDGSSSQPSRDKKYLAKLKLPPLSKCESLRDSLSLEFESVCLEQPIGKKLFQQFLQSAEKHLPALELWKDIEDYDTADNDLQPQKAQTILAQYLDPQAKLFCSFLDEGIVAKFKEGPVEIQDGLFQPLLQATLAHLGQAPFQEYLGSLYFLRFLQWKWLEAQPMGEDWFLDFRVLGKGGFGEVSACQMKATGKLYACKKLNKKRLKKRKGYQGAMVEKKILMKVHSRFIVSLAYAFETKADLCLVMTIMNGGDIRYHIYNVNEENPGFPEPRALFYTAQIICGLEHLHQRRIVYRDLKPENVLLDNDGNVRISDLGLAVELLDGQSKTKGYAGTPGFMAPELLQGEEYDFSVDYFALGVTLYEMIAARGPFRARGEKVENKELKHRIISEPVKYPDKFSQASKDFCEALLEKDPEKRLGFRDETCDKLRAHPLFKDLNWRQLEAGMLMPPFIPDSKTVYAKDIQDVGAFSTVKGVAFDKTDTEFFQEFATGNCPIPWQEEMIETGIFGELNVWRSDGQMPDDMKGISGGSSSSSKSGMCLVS
# G protein-coupled receptor kinase 5, sequence (P34947 whole entry): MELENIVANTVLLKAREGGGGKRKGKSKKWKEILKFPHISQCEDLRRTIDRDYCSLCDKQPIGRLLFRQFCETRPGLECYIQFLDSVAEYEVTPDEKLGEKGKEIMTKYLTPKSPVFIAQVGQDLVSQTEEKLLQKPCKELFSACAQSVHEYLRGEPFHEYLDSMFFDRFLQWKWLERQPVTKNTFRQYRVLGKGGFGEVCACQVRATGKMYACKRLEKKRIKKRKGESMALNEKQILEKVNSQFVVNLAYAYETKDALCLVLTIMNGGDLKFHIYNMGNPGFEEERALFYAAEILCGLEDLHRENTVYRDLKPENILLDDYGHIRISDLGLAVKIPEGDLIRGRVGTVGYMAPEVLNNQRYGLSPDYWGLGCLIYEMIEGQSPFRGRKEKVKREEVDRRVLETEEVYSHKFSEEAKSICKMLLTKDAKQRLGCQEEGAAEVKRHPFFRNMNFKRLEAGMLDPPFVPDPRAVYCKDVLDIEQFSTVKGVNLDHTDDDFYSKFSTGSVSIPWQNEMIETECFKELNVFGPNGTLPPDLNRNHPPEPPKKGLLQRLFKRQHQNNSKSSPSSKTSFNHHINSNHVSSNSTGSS
IC50 [1],SMILES,IC50 (Rhodopsin kinase GRK1)
5.4 µM,CC1=C(C(=O)Nc2ccc3[nH]ncc3c2)C(c2ccc(F)c(C(=O)NCc3nccc4ccccc34)c2)NC(=O)N1 (centres undefined),
8.9 µM,C#CCN(CC(C)C)C(=O)Cc1cc(C2NC(=O)NC(C)=C2C(=O)Nc2ccc3[nH]ncc3c2)ccc1F (centres undefined),
4.4 µM,C#CCN(Cc1ccco1)C(=O)Cc1cc(C2NC(=O)NC(C)=C2C(=O)Nc2ccc3[nH]ncc3c2)ccc1F (centres undefined),
,CC1=C(C(=O)Nc2ccc3[nH]ncc3c2)C(c2ccc(F)c(CC(=O)N(CCO)Cc3ccco3)c2)NC(=O)N1 (centres undefined),21 µM
